Where a name gives a salt, the structure may show the parent alone.
Legend:
[1] = test system: Carrageenan-induced inflammation in the rear right footpad; assay: Carrageenan-induced footpad inflammation, foot thickness; type: in vivo, mice; conditions: for reduction of inflammation (foot thickness) vs untreated animals: microemulsion 10 mg/ml, topical on shaved belly, FIG. 8; for reduction of inflammation (foot thickness): microemulsion 10 mg/ml VB12 analog, 20 microL on shaved belly, 14 days
[2] = test system: B16 melanoma line; assay: Topical treatment of B16 melanoma in mice; conditions: microemulsion 10 mg/ml, 20 microlitre, 2 times per day, after 4 days
[3] = microemulsions compared to a hydrogel; cited from earlier work
[4] = Weight loss microemulsion in overweight Swiss mice; type: in vivo; conditions: topical microemulsion 1 mg/ml daily
Experimental: A microemulsion for topical weight loss was prepared according to the methods described in Examples 1 and 7, and included insulin, or insulin-like growth factor 1 (IGF1) or GHRP-6 at a final concentration of 1 mg/ml. A standardised volume of microemulsion was applied daily (TD) to an area of shaved skin on the belly of conscious Swiss strain mice. A standardised volume of each of insulin, or insulin-like growth factor 1 (IGF1) or GHRP-6 at a final concentration of 1 mg/ml in saline was injected sub cutaneously (SC) into the belly region of Swiss strain mice. Animal weights were measured 3 times per week. Following 2 weeks of treatment the mice were euthanased and their tissues removed and weighed. The weight of the animals with time is plotted in FIG. 11. It can be seen that there was a decrease in body weight of animals treated with the topical insulin of up to 15% within 2 weeks (FIG. 11).

[5] = Distribution of 125I-labeled proteins after transdermal application in a microemulsion; conditions: conscious Balb/C mice; for counts in the organs of the intestine: presumed due to grooming

Compound: H-Met-Gln-Met-Asn-Ser-OH [MLIF-C]
- reduction of inflammation (foot thickness) vs untreated animals ([1]; C57/BI6 mice): active in reducing inflammation

Compound: N.N.[Cl][Pt][Cl] [Cis-Platinum]
- body weight of the animals [2]: no reduction in body weight
- growth rate of the tumour [2]: reduction in growth rate of the tumour

Compound: H-Met-Gln-Glu-Asn-Ser-OH [MLIF-A]
- reduction of inflammation (foot thickness) vs untreated animals ([1]; C57/BI6 mice): active in reducing inflammation

Compound: adalimumab
- level of inflammation in the rear right foot-pad vs untreated animals ([1]; microemulsion, TNFRII-Fc 5 mg/ml or adalimumab 4 mg/ml, topical, FIG. 9): significantly lower levels of inflammation

Compound: cyanocobalamin [reference compound]
- reduction of inflammation (foot thickness) ([1]; C57/BI6 mice, FIG. 7): active in reducing inflammation

Compound: C/C1=C2/[N-][C@H]([C@H](CC(N)=O)[C@@]2(C)CCC(=O)NC[C@@H](C)OP(=O)([O-])O[C@H]2[C@@H](O)[C@@H](n3cnc4cc(C)c(C)cc43)O[C@@H]2CO)[C@]2(C)N=C(/C(C)=C3N=C(/C=C4N=C1[C@@H](CCC(N)=O)C\4(C)C)[C@@H](CCC(N)=O)[C@]\3(C)CC(N)=O)[C@@H](CCC(N)=O)[C@]2(C)CC(N)=O.[Co+3].[OH-] [hydroxycobalamin, reference compound]
- reduction of inflammation (foot thickness) ([1]; C57/BI6 mice, FIG. 7): active in reducing inflammation

Compound: N.N.O=C([O-])C1(C(=O)[O-])CCC1.[Pt+2] [Carboplatin]
- body weight of the animals [2]: no reduction in body weight
- growth rate of the tumour [2]: reduction in growth rate of the tumour

Compound: H-Met-Gln-Ile-Asn-Ser-OH [MLIF-B]
- reduction of inflammation (foot thickness) vs untreated animals ([1]; C57/BI6 mice): active in reducing inflammation

Compound: CCCNC(C)C(=O)Nc1ccccc1C (stereo not shown) [prilocaine hydrochloride]
- increase of transdermal flux [3]: ~10 times

Compound: insulin: insulin in a microemulsion (125I-labeled in Example 5; 1 mg/ml in Example 20)
- change of organ weights compared with other groups ([4]; 2 weeks, FIG. 10): greatest change
- muscle mass ([4]; 2 weeks, FIG. 10): increased
- weight of skin ([4]; 2 weeks, FIG. 10): significantly reduced
- decrease in body weight ([4]; within 2 weeks, FIG. 11): up to 15%
- appearance of 125I in skin, muscle and shaved area ([5]; overnight, FIG. 4): rapid appearance of ^125I in skin, muscle and the shaved area of the skin
- counts in the organs of the intestine ([5]; overnight): appearance of counts in the stomach, SI-1, SI-2, caecum and faeces

Compound: C/C1=C2/[N-][C@H]([C@H](CC(N)=O)[C@@]2(C)CCC(=O)NC[C@@H](C)OP(=O)([O-])O[C@H]2[C@@H](O)[C@@H](n3cnc4cc(C)c(C)cc43)O[C@@H]2CO)[C@]2(C)N=C(/C(C)=C3N=C(/C=C4N=C1[C@@H](CCC(N)=O)C\4(C)C)[C@@H](CCC(N)=O)[C@]\3(C)CC(N)=O)[C@@H](CCC(N)=O)[C@]2(C)CC(N)=O.[CH2-][C@H]1O[C@@H](n2cnc3c(N)ncnc32)[C@H](O)[C@@H]1O.[Co] [adenosyl-cobalamin]
- comparison of reduction in inflammation among the compositions ([1]; C57/BI6 mice, VB12 analog microemulsions, FIG. 7): greatest reduction in inflammation
- reduction of inflammation (foot thickness) ([1]; C57/BI6 mice, FIG. 7): active in reducing inflammation
- reduction of inflammation (foot thickness) vs untreated animals ([1]; C57/BI6 mice): active in reducing inflammation
- level of inflammation in the rear right foot-pad vs untreated animals ([1]; C57/BI6 mice, microemulsions of Example 13, topical on shaved belly, FIG. 6): significantly lower level of inflammation

Compound: C/C1=C2/[N-][C@H]([C@H](CC(N)=O)[C@@]2(C)CCC(=O)NC[C@H](C)OP(=O)([O-])O[C@H]2[C@@H](O)[C@@H](n3cnc4cc(C)c(C)cc43)O[C@@H]2CO)[C@]2(C)N=C(/C(C)=C3N=C(/C=C4N=C1[C@@H](CCC(N)=O)C\4(C)C)[C@@H](CCC(N)=O)[C@]\3(C)CC(N)=O)[C@@H](CCC(N)=O)[C@]2(C)CC(N)=O.[Co+2] [cobalamin]
- reduction of inflammation (foot thickness) ([1]; C57/BI6 mice, FIG. 7): active in reducing inflammation

Compound: O=c1[nH]cc(F)c(=O)[nH]1 [5-fluorouracil]
- growth rate of the tumour [2]: reduction in growth rate of the tumour

Compound: EGF: 125I-labeled Epidermal Growth Factor in a microemulsion
- appearance of 125I in skin, muscle and shaved area ([5]; after 3 hours, FIG. 3): rapid appearance of ^125I in skin, muscle and the shaved area of the skin
- counts in the organs of the intestine ([5]; after 3 hours): appearance of counts in the stomach, SI-1, SI-2, caecum and faeces

Source: patent US20070243132A1, “Transdermal delivery of pharmaceutical agents” (priority 2005, published 2007)
